Measurements as given in patent publication US20160206580A1, “[…] LIPOSOME FORMULATIONS OF TRANEXAMIC ACID” (Pacira Pharmaceuticals, Inc., priority 2015, published 2016).
Where two headings read alike, the source gives them in different places.

How the values were obtained:
[1] = Toxicokinetics of TXA in plasma after subcutaneous injection; type: in vivo, beagle dog
Procedure: (§1) The objectives of this study were to determine the potential toxicity of TXA formulations, when given by subcutaneous injection to the beagle dog and to evaluate the potential reversibility of any findings, in comparison to the Reference Control Item, Tranexamic acid. In addition, the toxicokinetic profiles were determined.
(§2) The Test, Reference Control and Reference Items were administered to the appropriate animals via subcutaneous injection into the scapular and mid-dorsal areas on Days 1, 4, 7, and 10. The dose volume for each animal was based on the most recent body weight measurement. The volume for each dose was administered using a syringe/needle over one injection. Injection sites were rotated between two delimited sites (and the same site for all animals on a given day). Dosing area was shaved as needed and injection sites were marked with a pen (target area of 5 cm×5 cm). The first dosing site was in the mid-scapular region of the back and the second dosing site was caudal to the first site in the mid-dorsum region.
Blood was collected from the jugular vein (or cephalic vein) from all animals in lithium heparin-containing tubes.
Samples were mixed gently and placed on crushed wet ice until centrifugation, which was carried out as soon as practical. The samples were centrifuged for 10 minutes in a refrigerated centrifuge (set to maintain the temperature at 4° C.) at 2700 rpm. The resultant plasma was separated, transferred to uniquely labeled clear polypropylene tubes, and frozen immediately over dry ice and transferred to a freezer set to maintain −80° C.
Plasma samples were analyzed for concentration of the tranexamic acid using a validated analytical procedure.
Toxicokinetic parameters were generated from the test item (tranexamic acid) individual concentrations in plasma from Days 1 and 10, whenever practical.

[2] = tested on: beagle dog; experiment: Evaluation of toxicity of subcutaneous administration; type: in vivo; settings: sc
Procedure: as §1
21 male and 21 female beagle dogs were used in this study. The animals were from 6 to 7 months old and weighed between 7.5 and 9.8 kg (males) and 6.0 and 8.2 kg (females) at initiation of dosing.
as §2
Blood was collected from the jugular vein. Urine was collected overnight from individually housed animals. […]

[3] = Percent free (unencapsulated) TXA in the formulation; type: physicochemical; settings: formulations dosed in the rat PK study (Table 2)
Description: The present embodiments provide pharmaceutical formulations comprising multivesicular liposomes (MVLs) containing tranexamic acid (TXA) which minimize the side effects of TXA while maintaining or improving efficacy and lengthening the duration of the effect. The present embodiments also provide pharmaceutical formulations comprising TXA encapsulated in the MVLs and unencapsulated TXA. The term “unencapsulated” as used herein, means that the biologically active ingredient (e.g., tranexamic acid) is outside the MVL particles, for example, in the suspending solution. The unencapsulated TXA provides immediate efficacy of TXA while the use of TXA encapsulated MVLs formulations in the instant embodiments results in the release of TXA for an extended period. The processes of preparing the DEPO-TXAs and the methods of using the DEPO-TXA formulations for treating, ameliorating, or preventing blood loss are also disclosed herewith. […]
For the 40 mg/mL formulation, % PPV is about 50.0% and the assumed interstitial volume (mL) is about 20%, rendering about 62% free TXA outside of the multivesicular liposomes. […] During the first 12 h, the released TXA contributes to the initial TXA peak measured in the plasma. […]

Q: Which results are given for `NC[C@H]1CC[C@H](C(=O)O)CC1` [TXA, tranexamic acid]?
A: mean peak exposures (Cmax) higher for the free TXA group than DepoTXA ([1]; 120 mg/kg dose level, Day 1): 28%; peak TXA levels lower for the free TXA group than DepoTXA ([1]; 120 mg/kg dose level, Day 10, after fourth and final sc dose): 14%; administered TXA cleared after 12 hours (percent of total AUC) ([1]; beagle dog, sc, FIGS. 5A, 5B): 94%; time to exposure to nearly the full TXA dose ([1]; beagle dog, sc, FIGS. 6A, 6B): less than 24 hours; AUC(0-t) ([1]; beagle, dog, plasma, sc, 120 mg/kg, beagle dog, sc, 120 mg/kg/dose, Day 1, read-out: AUC0-72): 490 µg·h/mL; Cmax ([1]; beagle, dog, plasma, sc, 120 mg/kg, beagle dog, sc, 120 mg/kg/dose, Day 1, read-out: Cmax): 140 µg/mL; Tmax ([1]; beagle, dog, plasma, sc, 120 mg/kg, beagle dog, sc, 120 mg/kg/dose, Day 1, read-out: Tmax): 1.2 h; half-life ([1]; beagle, dog, plasma, sc, 120 mg/kg, beagle dog, sc, 120 mg/kg/dose, Day 1, read-out: t1/2 (converted)): 25.7 h; AUC(0-t) ([1]; beagle, dog, plasma, sc, 120 mg/kg, beagle dog, sc, 120 mg/kg/dose, Day 10, read-out: AUC0-72): 484 µg·h/mL; Cmax ([1]; beagle, dog, plasma, sc, 120 mg/kg, beagle dog, sc, 120 mg/kg/dose, Day 10, read-out: Cmax): 119 µg/mL; Tmax ([1]; beagle, dog, plasma, sc, 120 mg/kg, beagle dog, sc, 120 mg/kg/dose, Day 10, read-out: Tmax): 1.1 h; half-life ([1]; beagle, dog, plasma, sc, 120 mg/kg, beagle dog, sc, 120 mg/kg/dose, Day 10, read-out: t1/2 (converted)): 28.9 h; half-life ([1]; beagle, dog, plasma, sc, 120 mg/kg, mean±SD, sc, 120 mg/kg, Day 1, read-out: Mean terminal elimination half-life (t1/2elim) (converted)): 25.7 ± 2 h; half-life ([1]; beagle, dog, plasma, sc, 120 mg/kg, mean±SD, sc, 120 mg/kg, Day 10, read-out: Mean terminal elimination half-life (t1/2elim) (converted)): 28.9 ± 2.9 h; Cmax ([1]; both sexes, beagle, dog, plasma, sc, 120 mg/kg, genders combined mean, sc, 120 mg/kg, Day 10, read-out: mean peak levels (Cmax)): 119 ± 15.4 µg/mL; AUC(0-t) ([1]; both sexes, beagle, dog, plasma, sc, 120 mg/kg, mean±SD, n=10, genders combined, sc, 120 mg/kg, Day 1, read-out: AUC0-24): 475 ± 35.1 µg·h/mL; AUC(0-t) ([1]; both sexes, beagle, dog, plasma, sc, 120 mg/kg, mean±SD, n=10, genders combined, sc, 120 mg/kg, Day 1, read-out: AUC0-48): 485 ± 36.1 µg·h/mL; AUC(0-t) ([1]; both sexes, beagle, dog, plasma, sc, 120 mg/kg, mean±SD, n=10, genders combined, sc, 120 mg/kg, Day 1, read-out: AUC0-72): 490 ± 36.5 µg·h/mL; Tmax ([1]; both sexes, beagle, dog, plasma, sc, 120 mg/kg, mean±SD, n=10, genders combined, sc, 120 mg/kg, Day 1, read-out: Tmax (plasma concentrations of TXA peaked)): 1.2 ± 0.42 h; Cmax ([1]; both sexes, beagle, dog, plasma, sc, 120 mg/kg, mean±SD, n=10, genders combined, sc, 120 mg/kg, Day 1, read-out: mean peak levels (Cmax)): 140 ± 19.2 µg/mL; AUC(0-t) ([1]; both sexes, beagle, dog, plasma, sc, 120 mg/kg, mean±SD, n=10, genders combined, sc, 120 mg/kg, Day 10, read-out: AUC0-24): 468 ± 42.5 µg·h/mL; AUC(0-t) ([1]; both sexes, beagle, dog, plasma, sc, 120 mg/kg, mean±SD, n=10, genders combined, sc, 120 mg/kg, Day 10, read-out: AUC0-48): 479 ± 44.2 µg·h/mL; AUC(0-t) ([1]; both sexes, beagle, dog, plasma, sc, 120 mg/kg, mean±SD, n=10, genders combined, sc, 120 mg/kg, Day 10, read-out: AUC0-72): 484 ± 45.2 µg·h/mL; Tmax ([1]; both sexes, beagle, dog, plasma, sc, 120 mg/kg, mean±SD, n=10, genders combined, sc, 120 mg/kg, Day 10, read-out: Tmax (mean peak concentrations reached)): 1.1 ± 0.32 h; AUC(0-inf) ([1]; both sexes, beagle, dog, plasma, mean±SD, n=10, genders combined, sc, 120 mg/kg, Day 1): 495 ± 36.8 µg·h/mL; clinical signs following dosing [2]: at a similar incidence and severity; Percent free TXA [3]: 100%
